Assay results reported in patent publication US12729377B2, “RNAi agents and compositions for inhibiting expression of angiopoietin-like 3 (ANGPTL3), and methods of use” (Arrowhead Pharmaceuticals, Inc., priority 2017, dated 2026).
In the oligonucleotide strings, read from the 5' end, every base follows the letter of its sugar. An asterisk marks phosphorothioate; unmarked linkages are phosphodiester. Other units and linkages are bracketed, terminal groups are in braces. A string of capitals states the bases alone. {NAG37} = tridentate N-acetyl-galactosamine targeting ligand, structure (NAG37)s; [invAb] = inverted abasic unit; m = 2'-O-methyl; f = 2'-fluoro

Columns and labels:
Type in all cases: in vivo, cynomolgus macaque (Macaca fascicularis)
ANGPTL3 gene [1] = assay: Example 8: serum HDL in cynomolgus monkeys; details: 3.0 mg/kg single SC injection day 1, cynos, n=2
Protocol: (§1) Additional ANGPTL3 RNAi agents were evaluated in cynomolgus monkeys. On day 1, cynomolgus macaque (Macaca fascicularis) primates (also referred to herein as “cynos”) were administered a single subcutaneous injection of 0.3 mL/kg (approximately 1-2 mL volume, depending on animal mass) containing 3.0 mg/kg of one of ANGPTL3 RNAi agent AD05577, AD05307, AD05488, AD05654, or AD05659, each formulated in saline.
(§2) Two (2) cynos in each group were tested (n=2). Blood samples were drawn and serum samples were analyzed on days −8 (pre-dose), 1 (pre-dose), 8, 15, 22, 29, and 36. Cynos were fasted overnight prior to each collection. ANGPTL3 protein levels in serum were measured by ELISA assay (R&D Systems), according to the manufacturer's recommendations. Triglycerides, total cholesterol, high-density lipoprotein (HDL), and low-density lipoprotein (LDL) in serum were measured on a Cobas® Integra 400 (Roche Diagnostics), according to the manufacturer's recommendations.
(§3) The ANGPTL3 protein levels, triglyceride levels, total cholesterol levels, HDL levels, and LDL levels for each animal were normalized. For normalization, the level of ANGPTL3 protein, triglyceride, HDL, and total cholesterol, respectively, for each animal at a time point, was divided by the average pre-treatment level of expression in that animal (in this case at days −8, and 1 (pre-dose)) to determine the ratio of expression “normalized to pre-treatment.”

ANGPTL3 gene [2] = assay: Example 8: serum total cholesterol in cynomolgus monkeys; details: 3.0 mg/kg single SC injection day 1, cynos, n=2
Protocol: as §1, §2, §3

ANGPTL3 gene [3] = assay: Example 8: serum LDL in cynomolgus monkeys; details: 3.0 mg/kg single SC injection day 1, cynos, n=2
Protocol: as §1, §2, §3

ANGPTL3 protein [4] = assay: Example 8: serum ANGPTL3 protein by ELISA in cynomolgus monkeys; details: for Avg ANGPTL3 protein normalized to pre-treatment: 3.0 mg/kg single SC injection day 1, cynos, n=2
Protocol: as §1, §2, §3

ANGPTL3 gene [5] = assay: Example 8: serum triglycerides in cynomolgus monkeys; details: 3.0 mg/kg single SC injection day 1, cynos, n=2
Protocol: as §1, §2, §3

ANGPTL3 gene [6] = assay: Example 9: serum total cholesterol in cynomolgus monkeys; details: 2.0 mg/kg single SC injection day 1, cynos, n=3
Protocol: (§4) Additional ANGPTL3 RNAi agents were evaluated in cynomolgus monkeys. On day 1, cynomolgus macaque (Macaca fascicularis) primates (also referred to herein as “cynos”) were administered a single subcutaneous injection of 0.3 mL/kg (approximately 2-3 mL volume, depending on animal mass) containing 2.0 mg/kg of an ANGPTL3 RNAi agent, which included either AD05488, AD05743, AD05775, or AD05841, each formulated in saline. […] ANGPTL3 RNAi agents AD05488, AD05743, and AD05775 included nucleotide sequences designed to target position 304 of the ANGPTL3 gene. ANGPTL3 RNAi agent AD05841 included nucleotide sequences designed to target position 1035 of the ANGPTL3 gene.
as §2, with “Three (3)” for “Two (2)”, “(n=3).” for “(n=2).”, “−14 (predose), −7 (predose),” for “−8 (pre-dose),”, “35.” for “36.”
(§5) The ANGPTL3 protein levels, triglyceride levels, total cholesterol levels, HDL levels, and LDL levels for each animal were normalized. For normalization, the level of ANGPTL3 protein, triglyceride, HDL, and total cholesterol, respectively, for each animal at a time point, was divided by the average pre-treatment level of expression in that animal (in this case at days −14, −7, and 1) to determine the ratio of expression “normalized to pre-treatment.”

ANGPTL3 gene [7] = assay: Example 9: serum LDL in cynomolgus monkeys; details: 2.0 mg/kg single SC injection day 1, cynos, n=3
Protocol: as §4
as §2, with “Three (3)” for “Two (2)”, “(n=3).” for “(n=2).”, “−14 (predose), −7 (predose),” for “−8 (pre-dose),”, “35.” for “36.”
as §5

ANGPTL3 gene [8] = assay: Example 9: serum triglycerides in cynomolgus monkeys; details: 2.0 mg/kg single SC injection day 1, cynos, n=3
Protocol: as §4
as §2, with “Three (3)” for “Two (2)”, “(n=3).” for “(n=2).”, “−14 (predose), −7 (predose),” for “−8 (pre-dose),”, “35.” for “36.”
as §5

ANGPTL3 gene [9] = assay: Example 9: serum HDL in cynomolgus monkeys; details: 2.0 mg/kg single SC injection day 1, cynos, n=3
Protocol: as §4
as §2, with “Three (3)” for “Two (2)”, “(n=3).” for “(n=2).”, “−14 (predose), −7 (predose),” for “−8 (pre-dose),”, “35.” for “36.”
as §5

ANGPTL3 protein [10] = assay: Example 9: serum ANGPTL3 protein by ELISA in cynomolgus monkeys; details: for Average ANGPTL3 Protein Normalized to Pre-Treatment: 2.0 mg/kg single SC injection day 1, cynos, n=3
Protocol: as §4
as §2, with “Three (3)” for “Two (2)”, “(n=3).” for “(n=2).”, “−14 (predose), −7 (predose),” for “−8 (pre-dose),”, “35.” for “36.”
as §5

AD05577: RNAi agent duplex: antisense AM07350-AS, sense AM07002-SS (antisense mU*fG*mU*mUmGmAmAmUmUmAmAfUmGfUmCfCmAfUmGfG*mA; sense {NAG37}*[invAb]*mUmCmCmAmUmGmGmAfCfAfUmUmAmAmUmUmCmAmAmCmA*[invAb])
Average HDL Normalized to Pre-Treatment (ANGPTL3 gene [1]; Day 8): 0.855
Average HDL Normalized to Pre-Treatment (ANGPTL3 gene [1]; Day 15): 0.788
Average HDL Normalized to Pre-Treatment (ANGPTL3 gene [1]; Day 22): 0.818
Average HDL Normalized to Pre-Treatment (ANGPTL3 gene [1]; Day 29): 0.857
Average HDL Normalized to Pre-Treatment (ANGPTL3 gene [1]; Day 36): 0.852
Avg Total Chol normalized to pre-treatment (ANGPTL3 gene [2]; Day 8): 0.885
Avg Total Chol normalized to pre-treatment (ANGPTL3 gene [2]; Day 15): 0.931
Avg Total Chol normalized to pre-treatment (ANGPTL3 gene [2]; Day 22): 0.844
Avg Total Chol normalized to pre-treatment (ANGPTL3 gene [2]; Day 29): 0.839
Avg Total Chol normalized to pre-treatment (ANGPTL3 gene [2]; Day 36): 0.936
Average LDL Normalized to Pre-Treatment (ANGPTL3 gene [3]; Day 8): 0.951
Average LDL Normalized to Pre-Treatment (ANGPTL3 gene [3]; Day 15): 1.091
Average LDL Normalized to Pre-Treatment (ANGPTL3 gene [3]; Day 22): 0.860
Average LDL Normalized to Pre-Treatment (ANGPTL3 gene [3]; Day 29): 0.991
Average LDL Normalized to Pre-Treatment (ANGPTL3 gene [3]; Day 36): 0.925
Avg ANGPTL3 protein normalized to pre-treatment (ANGPTL3 protein [4]; Day 8): 0.503
Avg ANGPTL3 protein normalized to pre-treatment (ANGPTL3 protein [4]; Day 15): 0.544
Avg ANGPTL3 protein normalized to pre-treatment (ANGPTL3 protein [4]; Day 22): 0.754
Avg ANGPTL3 protein normalized to pre-treatment (ANGPTL3 protein [4]; Day 29): 0.586
Avg ANGPTL3 protein normalized to pre-treatment (ANGPTL3 protein [4]; Day 36): 0.479
reduction in ANGPTL3 protein compared to pre-treatment (ANGPTL3 protein [4]; all measured time points, single 3.0 mg/kg subcutaneous, cynomolgus monkeys): reduction
Avg TG normalized to pre-treatment (ANGPTL3 gene [5]; Day 8): 1.159
Avg TG normalized to pre-treatment (ANGPTL3 gene [5]; Day 15): 0.977
Avg TG normalized to pre-treatment (ANGPTL3 gene [5]; Day 22): 0.855
Avg TG normalized to pre-treatment (ANGPTL3 gene [5]; Day 29): 0.886
Avg TG normalized to pre-treatment (ANGPTL3 gene [5]; Day 36): 0.748

AD05743: RNAi agent duplex: antisense AM07235-AS, sense AM07579-SS (antisense mU*fA*mC*fUmGfAmUfCmAfAmAfUmAfUmGfUmUfGmAfG*mC; sense {NAG37}*[invAb]*mGmCfUmCfAmAfCmAfUfAfUmUmUmGmAmUmCmAmGmUmA*[invAb])
Average Total Cholesterol Normalized to Pre-Treatment (ANGPTL3 gene [6]; Day 8): 0.925
Average Total Cholesterol Normalized to Pre-Treatment (ANGPTL3 gene [6]; Day 15): 0.758
Average Total Cholesterol Normalized to Pre-Treatment (ANGPTL3 gene [6]; Day 22): 0.768
Average Total Cholesterol Normalized to Pre-Treatment (ANGPTL3 gene [6]; Day 29): 0.807
Average Total Cholesterol Normalized to Pre-Treatment (ANGPTL3 gene [6]; Day 35): 0.752
Average LDL Normalized to Pre-Treatment (ANGPTL3 gene [7]; Day 8): 1.055
Average LDL Normalized to Pre-Treatment (ANGPTL3 gene [7]; Day 15): 0.825
Average LDL Normalized to Pre-Treatment (ANGPTL3 gene [7]; Day 22): 0.986
Average LDL Normalized to Pre-Treatment (ANGPTL3 gene [7]; Day 29): 0.941
Average LDL Normalized to Pre-Treatment (ANGPTL3 gene [7]; Day 35): 0.911
Average Triglycerides Normalized to Pre-Treatment (ANGPTL3 gene [8]; Day 8): 0.646
Average Triglycerides Normalized to Pre-Treatment (ANGPTL3 gene [8]; Day 15): 0.708
Average Triglycerides Normalized to Pre-Treatment (ANGPTL3 gene [8]; Day 22): 0.458
Average Triglycerides Normalized to Pre-Treatment (ANGPTL3 gene [8]; Day 29): 0.479
Average Triglycerides Normalized to Pre-Treatment (ANGPTL3 gene [8]; Day 35): 0.521
Average HDL Normalized to Pre-Treatment (ANGPTL3 gene [9]; Day 8): 0.849
Average HDL Normalized to Pre-Treatment (ANGPTL3 gene [9]; Day 15): 0.797
Average HDL Normalized to Pre-Treatment (ANGPTL3 gene [9]; Day 22): 0.666
Average HDL Normalized to Pre-Treatment (ANGPTL3 gene [9]; Day 29): 0.757
Average HDL Normalized to Pre-Treatment (ANGPTL3 gene [9]; Day 35): 0.677
Average ANGPTL3 Protein Normalized to Pre-Treatment (ANGPTL3 protein [10]; Day 8): 0.349
Average ANGPTL3 Protein Normalized to Pre-Treatment (ANGPTL3 protein [10]; Day 15): 0.316
Average ANGPTL3 Protein Normalized to Pre-Treatment (ANGPTL3 protein [10]; Day 22): 0.322
Average ANGPTL3 Protein Normalized to Pre-Treatment (ANGPTL3 protein [10]; Day 29): 0.381
Average ANGPTL3 Protein Normalized to Pre-Treatment (ANGPTL3 protein [10]; Day 35): 0.346
reduction in ANGPTL3 protein compared to pre-treatment (ANGPTL3 protein [10]; each of the measured time points, single 2.0 mg/kg subcutaneous, cynomolgus monkeys): reduction
